Results: US12473274B2, “Heterocyclic compound as inhibitor of casein kinase 1-δ and/or activin receptor-like kinase 5” (Alchemedicine, Inc., priority 2020, dated 2025)

Columns and labels:
Format in all cases: biochemical
[1] = target: T1, human recombinant GST-tagged p38α (Homo sapiens, UniProt Q16539); assay: Test Example 5: p38α inhibition action (ADP-Glo, SignalChem enzyme); details: enzyme 2 ng/μL, p38 Substrate 100 ng/μL, ATP 25 μM, 40 minutes
T1 construct: GST; purchased SignalChem M39-10 BG
T1 sequence (Q16539 whole entry): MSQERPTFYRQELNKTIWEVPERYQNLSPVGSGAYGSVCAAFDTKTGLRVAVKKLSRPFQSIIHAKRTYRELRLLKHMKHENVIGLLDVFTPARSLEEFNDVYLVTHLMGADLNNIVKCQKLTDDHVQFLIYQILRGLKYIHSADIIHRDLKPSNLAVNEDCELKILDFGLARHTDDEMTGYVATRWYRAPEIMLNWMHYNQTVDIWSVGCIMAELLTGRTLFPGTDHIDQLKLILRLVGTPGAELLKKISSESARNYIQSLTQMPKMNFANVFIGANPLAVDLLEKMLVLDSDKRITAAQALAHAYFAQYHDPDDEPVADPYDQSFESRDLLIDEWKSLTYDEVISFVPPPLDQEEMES
Method: Evaluation of p38α Inhibition Action
(§1) Using a human recombinant GST-tagged p38α available from SignalChem (Catalog No. M39-10 BG), a substrate peptide p38 Substrate (Catalog No. P03-58), and ADP-Glo assay kit (Promega Corporation), measurement was performed on a 5-μL reaction system in a 384-well plate (GloMax plate reader) according to the document attached to the ADP-Glo assay kit. For the reaction conditions used, the enzyme concentration was 2 ng/μL, the substrate concentration was 100 ng/μL, the ATP concentration was 25 μM, and the reaction time was 40 minutes. The IC50 value was calculated using GraphPad Prism version 5.01 based on the inhibition rate where the test substance (8 to 10 concentrations, diluted 3-fold from 3000 nM) was added.

[2] = target: T2, human recombinant GST-tagged CK1δ (Homo sapiens, UniProt P48730); assay: Test Example 4: CK1δ inhibition action (ADP-Glo, SignalChem enzyme); details: enzyme 2 ng/μL, Casein Dephosphorylated 200 ng/μL, ATP 25 μM, 40 minutes
T2 construct: GST; purchased SignalChem C65-10G
T2 sequence (P48730 whole entry): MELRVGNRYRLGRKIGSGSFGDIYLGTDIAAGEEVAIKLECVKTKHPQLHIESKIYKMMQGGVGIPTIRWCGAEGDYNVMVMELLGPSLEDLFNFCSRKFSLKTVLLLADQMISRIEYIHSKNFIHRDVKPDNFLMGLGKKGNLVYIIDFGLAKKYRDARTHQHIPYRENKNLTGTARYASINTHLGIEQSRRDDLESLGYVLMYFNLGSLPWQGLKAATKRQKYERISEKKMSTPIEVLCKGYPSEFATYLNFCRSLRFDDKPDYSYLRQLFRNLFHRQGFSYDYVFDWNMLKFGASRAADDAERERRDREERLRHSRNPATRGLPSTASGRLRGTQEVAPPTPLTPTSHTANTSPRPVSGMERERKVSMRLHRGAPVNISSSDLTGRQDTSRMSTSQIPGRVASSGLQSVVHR
Method: Evaluation of CK1δ Inhibition Action
as §1, with “CK1δ” for “p38α”, “C65-10G),” for “M39-10 BG),”, “Casein Dephosphorylated” for “p38 Substrate”, “C03-54BN),” for “P03-58),”, “200” for “100”

ALK5 [3] = target: T3, ALK5 (Homo sapiens, UniProt P36897); assay: Test Example 3: ALK5 inhibition action (ADP-Glo, SignalChem enzyme); set-up: GST; purchased SignalChem T07-11G; details: enzyme 5 ng/μL, TGFBR1 Peptide 200 ng/μL, ATP 25 μM, 2 hours
T3 sequence (P36897 34-503): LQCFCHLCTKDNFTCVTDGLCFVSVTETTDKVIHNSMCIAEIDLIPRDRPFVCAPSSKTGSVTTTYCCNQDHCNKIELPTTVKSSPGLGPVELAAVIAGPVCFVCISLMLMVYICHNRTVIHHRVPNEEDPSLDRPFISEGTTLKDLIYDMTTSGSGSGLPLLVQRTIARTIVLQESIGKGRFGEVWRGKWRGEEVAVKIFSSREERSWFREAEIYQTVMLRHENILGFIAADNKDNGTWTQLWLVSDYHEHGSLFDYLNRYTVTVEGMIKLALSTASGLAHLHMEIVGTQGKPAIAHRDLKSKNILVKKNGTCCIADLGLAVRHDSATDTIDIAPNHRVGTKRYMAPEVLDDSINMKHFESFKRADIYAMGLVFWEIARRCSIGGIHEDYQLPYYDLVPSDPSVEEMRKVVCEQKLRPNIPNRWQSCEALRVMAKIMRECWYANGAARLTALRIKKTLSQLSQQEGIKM
Method: (§2) Evaluation of ALK5 Inhibition Action
Using a human recombinant GST-tagged TGFB available from SignalChem (Catalog No. T07-11G), a substrate peptide TGFBR1 Peptide (Catalog No. T36-58), and ADP-Glo assay kit (Promega Corporation), measurement was performed on a 5-μL reaction system in a 384-well plate (GloMax plate reader) according to the document attached to the ADP-Glo assay kit. For the reaction conditions used, the enzyme concentration was 5 ng/μL, the substrate concentration was 200 ng/μL, the ATP concentration was 25 μM, and the reaction time was 2 hours. The IC50 value was calculated using GraphPad Prism version 5.01 based on the inhibition rate where the test substance (8 to 10 concentrations, diluted 3-fold from 3000 nM) was added.

human CK1δ = target: T4, human CK1δ (Homo sapiens, UniProt P48730); assay: Test Example 1: CK1δ inhibitory activity (mobility shift, LabChip); details: for IC50: CKtide 1 μM, ATP 10 μM, Mg 5 mM, 1 hour room temperature; for Ratio (p38α/CK1δ): ratio of p38α IC50 to CK1δ IC50, Test Example 1
T4 construct: GST (N); made in house; host or cells: E. coli
T4 sequence (P48730 1-294): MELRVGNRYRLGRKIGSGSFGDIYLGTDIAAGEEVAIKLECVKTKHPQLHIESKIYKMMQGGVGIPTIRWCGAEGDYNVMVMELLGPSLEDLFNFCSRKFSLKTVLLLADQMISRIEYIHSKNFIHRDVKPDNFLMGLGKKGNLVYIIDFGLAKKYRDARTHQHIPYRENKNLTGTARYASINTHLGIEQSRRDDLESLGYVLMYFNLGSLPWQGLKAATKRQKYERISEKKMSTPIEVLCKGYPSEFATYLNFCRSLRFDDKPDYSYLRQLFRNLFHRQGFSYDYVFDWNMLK
Method: (§3) Evaluation of CK1δ Inhibitory Activity and p38α Inhibition Action
(§4) 1. Preparation of Solution of Test Substance
(§5) A test substance was dissolved in dimethyl sulfoxide (DMSO). The solution was further diluted with DMSO to prepare a solution at a concentration 100-fold greater than the test concentration. The solution was further 25-fold diluted with an assay buffer to prepare a solution of the test substance. The positive control substance was also treated as above to prepare a solution of the positive control substance.
(§6) 2. Preparation of Kinase Protein
CK1δ: Used was the human CK1δ prepared by fusing GST (61 KDa) with the N-terminal of the human CK1δ enzyme activity domain (1-294 amino acid sequence site in accession number NP_001884.2), followed by expression in E. coli and then refining by a glutathione sepharose chromatography system.
(§7) 3. Reagent and Test Method
(§8) 5 μL of a 4-fold solution of the test substance prepared with an assay buffer (20 mM HEPES, 0.01% Triton X-100, 2 mM DTT, pH: 7.5), 5 μL of a 4-fold substrate/ATP/metal solution, and 10 μL of a 2-fold kinase solution were mixed in wells of a 384-well plate made of polypropylene, and were reacted at room temperature for 1 hour. 70 μL of Termination Buffer (QuickScout Screening Assist MSA; Carna Biosciences) was added to terminate the reaction. The substrate peptide and phosphorylated peptide in the reaction solution were separated by a LabChip system (Perkin Elmer), and were quantitated. The kinase reaction was evaluated based on the product ratio (P/(P+S)) calculated from the substrate peptide peak height (S) and the phosphorylated peptide peak height (P).
(§9) The average signal from control wells containing all the reaction components was defined as 0% inhibition, and the average signal from background wells (enzyme not added) was defined as 100% inhibition. The inhibition rate was calculated from the average signal of test wells containing each test substance. The IC50 value was determined through approximation of the plot against the test substance concentration and the inhibition rate to a 4-parameter logistic curve by non-linear least squares. The compounds in Examples had good CK1δ inhibition activity. A large difference was found between the CK1δ inhibition concentration and the p38α inhibition concentration.

human p38α = target: T5, human p38α (Homo sapiens, UniProt Q16539); assay: Test Example 1: p38α inhibition action (mobility shift, LabChip); details: Modified Erktide 1 μM, ATP 150 μM, Mg 5 mM, 1 hour room temperature
T5 construct: GST (N); made in house; host or cells: E. coli
T5 sequence (Q16539 9-352): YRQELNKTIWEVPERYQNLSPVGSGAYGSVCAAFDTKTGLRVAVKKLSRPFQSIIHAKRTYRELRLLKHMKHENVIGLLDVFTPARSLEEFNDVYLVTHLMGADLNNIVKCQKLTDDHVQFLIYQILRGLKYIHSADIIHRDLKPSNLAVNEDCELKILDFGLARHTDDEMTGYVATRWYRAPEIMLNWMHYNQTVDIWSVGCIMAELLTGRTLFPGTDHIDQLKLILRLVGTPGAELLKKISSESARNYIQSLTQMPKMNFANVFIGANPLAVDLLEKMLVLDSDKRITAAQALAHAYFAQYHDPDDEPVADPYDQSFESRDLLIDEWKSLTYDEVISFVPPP
Method: as §3, §4, §5, §6
p38α: Used was the human p38α prepared as followed: GST (66 KDa) was fused with the N-terminal of the 9-352 amino acid sequence site in accession number NP_620581.1, followed by expression in E. coli and then refining by a glutathione sepharose chromatography system, and the product was activated with His-tagged MAP2K6, and was again purified by the glutathione sepharose chromatography system.
as §7, §8, §9

ALK5 [4] = target: T3, ALK5; assay: Test Example 2: ALK5 inhibition action (ADP-Glo kinase assay)
Method: as §2, §4
A 10% DMSO stock solution (compound concentration: 10 mM) containing 0.1 mg/mL BSA (bovine serum albumin) was prepared as a solution of the test substance.
3. Reagent, Test Method, and Reaction Conditions
A kinase assay was performed using ADP-Glo™ assay kit available from Promega Corporation according to the following assay reaction recipe: • Component 1: 1 μL diluted active protein kinase • Component 2: 1 μL of the substrate • Component 3: 1 μL kinase assay buffer • Component 4: 1 μL of the compound (10 concentrations) or 10% DMSO • Component 5: 1 μL ATP stock (25 μM final well concentration)
The assay started with incubation of the reaction mixture in a 384-well plate at room temperature for 40 minutes. After the incubation, 5 μL ADP-Glo™ reagent was added. The plate was shaken, followed by incubation at room temperature for 40 minutes. […] The plate was measured on a GloMax plate reader using ADP-Glo™ Luminescence Protocol. […] The corrected activity value was calculated by subtracting the value of the blank control from the measured value.
The relative luminescence unit (RLU) was measured at 10 compound concentrations between 0.3 nM and 10,000 nM. The inhibition rate was calculated as follows: {(Control RLU−Test RLU)/(Control RLU−Background RLU)}×100 […]

Row | SMILES | IC50 [1] [nM] | IC50 [2] [nM] | IC50 (ALK5 [3]) [nM] | IC50 (human CK1δ) [nM] | Ratio (p38α/CK1δ) (human CK1δ) | IC50 (human p38α) [nM] | IC50 (ALK5 [4]; ATP 25 μM, 40 minutes, 10 concentrations 0.3-10,000 nM) [nM] | ALK5 inhibition activity (in words) (ALK5 [4]; Test Example 2, comment on Table 3)
1 | c1ccc(-c2[nH]c(C3CC3)nc2-c2ccc3c(c2)COC3)nc1 [Example 5, 2-(2-Cyclopropyl-4-(1,3-dihydroisobenzofuran-5-yl)-1H-imidazol-5-yl)pyridine] | > 3000 | 200 | 330 |  |  |  |  | 
2 | Fc1ccc(-c2[nH]cnc2-c2ccc3c(c2)COC3)nc1 [Example 3, 2-(4-(1,3-Dihydroisobenzofuran-5-yl)-1H-imidazol-5-yl)-5-fluoropyridine] |  |  |  | 48 | 92 | 4400 |  | 
3 | c1ccc(-c2[nH]cnc2-c2ccc3c(c2)COC3)nc1 [Example 1, 2-(4-(1,3-Dihydroisobenzofuran-5-yl)-1H-imidazol-5-yl)pyridine] |  |  |  | 21 | 190 | 4000 | 31 | good ALK5 inhibition activity

Continued by falling IC50 (human CK1δ), values first:

Row | IC50 [1] [nM] | IC50 [2] [nM] | IC50 (ALK5 [3]) [nM] | IC50 (human CK1δ) [nM] | Ratio (p38α/CK1δ) (human CK1δ) | IC50 (human p38α) [nM] | IC50 (ALK5 [4]; ATP 25 μM, 40 minutes, 10 concentrations 0.3-10,000 nM) [nM] | ALK5 inhibition activity (in words) (ALK5 [4]; Test Example 2, comment on Table 3) | SMILES
4 |  |  | 46 | 110 | 47 | 5200 |  |  | Cc1cccc(-c2[nH]cnc2-c2ccc3c(c2)COC3)n1 [Example 4, 2-(4-(1,3-Dihydroisobenzofuran-5-yl)-1H-imidazol-5-yl)-6-methylpyridine]
5 |  |  |  | 68 | >150 | > 10000 |  |  | Cc1nc(-c2ccc3c(c2)COC3)c(-c2ccccn2)[nH]1 [Example 2, 2-(4-(1,3-Dihydroisobenzofuran-5-yl)-2-methyl-1H-imidazol-5-yl)pyridine]
